# Source: US8889671B2, “Compounds and methods for treating bacterial infections” (AstraZeneca AB, priority 2013, dated 2014)
# “And” between values parts separate entries of the source, which are not always exact repeats. Equal values may be shown once.
# Tests used:
# Streptococcus pneumoniae [1] = experiment: Susceptibility testing (MIC) Assay 1, broth microdilution; type: cell-based
# Streptococcus pyogenes [2] = experiment: as above; type: cell-based; settings: Streptococcus pyogenes, Streptococcus pyrgenes, in vivo strain; read-out: Spy MIC
# Staphylococcus aureus [3] = experiment: as above; type: cell-based; settings: Staphylococcus aureus
# Proteus mirabilis = experiment: In vitro antibacterial activity of Example 5 (MIC); type: cell-based
# Enterobacter aerogenes = experiment: In vitro antibacterial activity of Example 5 (MIC); type: cell-based; settings: Klebsiella aerogenes
# Serratia marcescens = experiment: In vitro antibacterial activity of Example 5 (MIC); type: cell-based
# Staphylococcus aureus [4] = experiment: Modal MIC against S. aureus isolates of the thigh model; type: cell-based
# Procedure: The S. aureus strains used included a methicillin-resistant isolate obtained from the American Type Culture Collection (ATCC33591) (MRSA). In addition, three S. aureus clinical isolates were utilized; (1) a methicillin sensitive isolate (MSSA); (2) a recent methicillin-resistant clinical isolate of the USA300 genotype (USA300) and (3) a recent methicillin-resistant clinical isolate of the USA100 genotype ([…]).
# The MIC against each isolate was determined using the broth microdilution method following CLSI guidelines (Rayner et al. Clinical pharmacodynamics of linezolid in seriously ill patients treated in a compassionate use program. Clin Pharmacokinet 2003. 42:1411-23). Ten individual determinations were performed for each strain and the Modal MIC was used for all PK/PD calculations.
# [5] = system: Staphylococcus lugdunensis; experiment: In vitro antibacterial activity of Example 5 (MIC); type: cell-based
# Pseudomonas aeruginosa = experiment: In vitro antibacterial activity of Example 5 (MIC); type: cell-based
# Streptococcus pneumoniae [6] = experiment: In vitro antibacterial activity of Example 5 (MIC); type: cell-based
# Enterococcus faecalis = experiment: In vitro antibacterial activity of Example 5 (MIC); type: cell-based
# [7] = system: Staphylococcus aureus, Streptococcus pneumoniae, and S. pyogenes strains with characterized gyrase and topoisomerase mutations; type: cell-based; settings: clinical isolates with mutations in gyrA, gyrB, ParC or ParE
# Streptococcus agalactiae = experiment: In vitro antibacterial activity of Example 5 (MIC); type: cell-based
# B. anthracis = experiment: microbe, parasite or virus in culture; type: cell-based, Bacillus anthracis
# Staphylococcus aureus [8] = experiment: Emergence of resistance with serial passage; type: cell-based; settings: after twenty passages with Example 5, S. aureus isolates (516 and 2398)
# [9] = system: Staphylococcus haemolyticus; experiment: In vitro antibacterial activity of Example 5 (MIC); type: cell-based
# Moraxella catarrhalis = experiment: In vitro antibacterial activity of Example 5 (MIC); type: cell-based; settings: ATCC43617; Moraxella catarrhalis (ATCC 43617)
# Streptococcus pyogenes [10] = experiment: In vitro antibacterial activity of Example 5 (MIC); type: cell-based; settings: for MIC: Streptococcus pyogenes (isolates not further specified)
structure (smiles),measurement,setting,value
"C[C@@H]1CN2c3c(cc4c(N5C(=O)OC[C@@H]5C)noc4c3F)CC3(C(=O)NC(=O)NC3=O)[C@H]2[C@H](C)O1 [Example 5, (2R,4S,4aS)-11-Fluoro-2,4-dimethyl-8-[(4S)-4-methyl-2-oxo-1,3-oxazolidin-3-yl]-1,2,4,4a-tetrahydro-2′H,6H-spiro[1,4-oxazino[4,3-a][1,2]oxazolo[4,5-g]quinoline-5,5′-pyrimidine]-2′,4′,6′(1′H,3′H)-trione]",MIC,"Streptococcus pneumoniae [1]; in vivo strain (footnote b), read-out: Spn(b) MIC",0.39 µM
same,MIC,"Streptococcus pneumoniae [1]; in vivo strain (footnote c), read-out: Spn(c) MIC",0.46 µM
same,MIC,Streptococcus pyogenes [2],0.36 µM
same,MIC,"Staphylococcus aureus [3]; Staphylococcus aureus in vivo strain, MSQS, read-out: Sau(d) MIC",0.36 µM
same,MIC,"Staphylococcus aureus [3]; in vivo strain, MRQR, read-out: Sau(e) MIC",0.78 µM
same,MIC,"Staphylococcus aureus [3]; serum, read-out: Sau(f) MIC",0.71 µM
same,MIC,Proteus mirabilis,8 µg/mL
same,MIC,Enterobacter aerogenes,64 µg/mL
same,MIC,Serratia marcescens,> 64 µg/mL
same,MIC,"Staphylococcus aureus [4]; ATCC 33591 / MRSA, S. aureus MRSA (ATCC33591)",0.125 µg/mL
same,MIC,Staphylococcus aureus [4]; S. aureus MSSA clinical isolate,0.0625 µg/mL
same,MIC,Staphylococcus aureus [4]; S. aureus USA100 clinical isolate,0.125 µg/mL
same,MIC,Staphylococcus aureus [4]; S. aureus USA300 clinical isolate,0.25 µg/mL
same,MIC,[5],1 µg/mL
same,MIC90,"[5]; S. lugdunensis, n=11",0.5 µg/mL
same,MIC,"Pseudomonas aeruginosa; PAO1, Pseudomonas aeruginosa (PAO1)",> 64 µg/mL
same,MIC,"Pseudomonas aeruginosa; PAO1, Pseudomonas aeruginosa (PAO1, mexABCDXY-)",2 µg/mL
same,MIC,Pseudomonas aeruginosa; Pseudomonas aeruginosa (clinical isolate),> 64 µg/mL
same,MIC,"Streptococcus pneumoniae [6]; Streptococcus pneumonia (Penicillin, -erythromycin- and fluoroquinolone-resistant)",0.25 µg/mL
same,MIC,"Streptococcus pneumoniae [6]; Streptococcus pneumoniae, ATCC49619, Streptococcus pneumonia (ATCC 49619, CLSI QC Strain), read-out: MIC",0.25 µg/mL
same,MIC90,"Streptococcus pneumoniae [6]; Streptococcus pneumoniae, 100 strains of S. pneumoniae",0.25 µg/mL
same,MIC50,"Streptococcus pneumoniae [6]; Streptococcus pneumoniae, 100 strains of S. pneumoniae, read-out: MIC50 (MICH [sic])",0.125 µg/mL
same,MIC,"Streptococcus pneumoniae [6]; Streptococcus pneumoniae, Streptococcus pneumonia (In vivo Strain), read-out: MIC",0.25 µg/mL
same,MIC range,"Enterococcus faecalis; E. faecalis, n=51",0.125 to 2 µg/mL
same,MIC,Enterococcus faecalis; Enterococcus faecalis,2 µg/mL
same,MIC,"Enterococcus faecalis; Enterococcus faecalis, ATCC29212, Enterococcus faecalis (ATCC 29212 CLSI QC Strain)",1 µg/mL
same,MIC,"Enterococcus faecalis; Enterococcus faecalis, Enterococcus faecalis (Vancomycin-R, fluoroquinolone-R)",0.5 µg/mL
same,MIC90,"Enterococcus faecalis; Enterococcus faecalis, E. faecalis, n=51",2 µg/mL
same,cross resistance,[7],No cross resistance
same,MIC,Streptococcus agalactiae,0.5 µg/mL
same,MIC90,Streptococcus agalactiae; 100 strains of S. Agalactiae,0.25 µg/mL
same,MIC50,"Streptococcus agalactiae; 100 strains of S. Agalactiae, read-out: MIC50 (MICH [sic])",0.125 µg/mL
same,MIC range,"B. anthracis; B. anthracis, BSL3 testing",0.125 to 1 µg/mL
same,MIC90,B. anthracis; Bacillus anthracis,0.5 µg/mL
same,decrease in susceptibility over the starting culture,Staphylococcus aureus [8],32 fold and 16 fold
same,MIC,[9],0.25 µg/mL
same,MIC90,"[9]; S. haemolyticus, n=21",0.25 µg/mL
same,MIC,Moraxella catarrhalis,0.125 µg/mL
same,MIC,Streptococcus pyogenes [10],0.25 µg/mL
same,MIC,"Streptococcus pyogenes [10]; Streptococcus pyogenes, read-out: MIC",0.125 µg/mL
same,MIC90,"Streptococcus pyogenes [10]; Streptococcus pyogenes, 100 strains of S. pyogenes",0.25 µg/mL
same,MIC50,"Streptococcus pyogenes [10]; Streptococcus pyogenes, 100 strains of S. pyogenes, read-out: MIC50 (MICH [sic])",0.125 µg/mL
